{"source": "patent US7955790B2", "about": "“Skin substitutes with improved barrier function” (Stratatech Corporation, priority 2001, dated 2011)", "origin": "cited, not measured here", "key": {"[1]": {"system": "in vitro Cultures", "conditions": "substance added to in vitro cultures"}, "[2]": {"system": "in vitro Cultures", "conditions": "for Lipid Composition: substance added to in vitro cultures"}}, "note": "Where two headings read alike, the source gives them in different places.", "data": [{"compound": "Vitamin D", "values": [{"measurement": "Barrier Function", "setting": "[1]; listed as vitamin D", "value": "improvements in some studies"}]}, {"compound": "Vitamin E", "values": [{"measurement": "Lipid Composition", "setting": "[2]", "value": "No effect"}]}, {"compound": "O=C1O[C@H]([C@@H](O)CO)C(O)=C1O", "note": "[Vitamin C, ascorbic acid]", "values": [{"measurement": "overall SC architecture", "setting": "[2]; skin equivalent cultures, electron microscopy", "value": "improved"}, {"measurement": "Lipid Composition", "setting": "[2]", "value": "Major"}, {"measurement": "Lipid Composition", "setting": "[2]; listed as vitamin C", "value": "improved"}]}, {"compound": "EGF: epidermal growth factor added to in vitro cultures", "values": [{"measurement": "Lipid Composition", "setting": "[2]", "value": "High triglycerides"}]}, {"compound": "Estrogen", "values": [{"measurement": "Barrier Function", "setting": "[1]", "value": "Accelerates"}]}]}
